Laboratory results from ChEMBL document CHEMBL5149982, “Development of Potent NEDD8-Activating Enzyme Inhibitors Bearing a Pyrimidotriazole Scaffold” (J Med Chem, 2021).
Activity calls are given as the source filed them. The rule behind the calls is not given here.

Assays:
[1] = biological target: T1, NEDD8 activating enzyme (Homo sapiens) (UniProt Q8TBC4+Q13564); assay: Inhibition of NAE in human HuTu80 cells mediated neddylation assessed as accumulation of p27 incubated for 24 hrs by Western blotting analysis; type: cell-based; conditions: dose <= 1.0 µM, DDE = dose-dependent effect
[2] = Toxicity in nude mouse xenografted with human HCT-116 cells assessed as effect on body weight at 65 to 130 mg/kg, sc qd for upto 18 days; type: organism-based; conditions: in vivo, 432 h, dose 65-130 mg/kg, time < 18 day
RKO = assay: Antiproliferative activity against human RKO cells assessed as cell growth inhibition measured after 72 hrs by SRB assay; type: functional, cell-based
[3] = Observed AUCinfinity in Sprague-Dawley rat at 1 mg/kg, iv; type: ADME, organism-based; set-up: time infinity, dose 1 mg/kg, route iv; conditions: in vivo
[4] = biological target: T1, NEDD8 activating enzyme (Homo sapiens); assay: Inhibition of NAE in human HCT-116 cells mediated neddylation assessed as accumulation of CDT1 incubated for 24 hrs by Western blotting analysis; type: cell-based; conditions: dose <= 1.0 µM, DDE = dose-dependent effect
LNCaP-Clone-FGC = assay: Antiproliferative activity against human LNCaP-Clone-FGC cells assessed as cell growth inhibition measured after 72 hrs by SRB assay; type: functional, cell-based
MV4-11 = assay: Antiproliferative activity against human MV4-11 cells assessed as cell growth inhibition measured after 72 hrs by SRB assay; type: functional, cell-based; conditions: MV4-11, 72 h
[5] = biological target: T1, NEDD8 activating enzyme (Homo sapiens); assay: Inhibition of NAE in human HuTu80 cells mediated neddylation assessed as accumulation of CDT1 incubated for 24 hrs by Western blotting analysis; type: cell-based; conditions: dose <= 1.0 µM, DDE = dose-dependent effect
[6] = biological target: T1, NEDD8 activating enzyme (Homo sapiens); assay: Inhibition of NAE in human HuTu80 cells mediated neddylation assessed as accumulation of IkappaBalpha (Ser32/36) incubated for 24 hrs by Western blotting analysis; type: cell-based; conditions: dose <= 1.0 µM, DDE = dose-dependent effect
[7] = Half life in Sprague-Dawley rat at 1 mg/kg, iv; type: ADME, organism-based; conditions: in vivo
HCT-116 [8] = assay: Induction of apoptosis in human HCT-116 cells assessed as increase in cleaved PARP1 level upto 1 uM incubated for 48 hrs by Western blot analysis; type: functional, cell-based
THP-1 = assay: Antiproliferative activity against human THP-1 cells assessed as cell growth inhibition measured after 72 hrs by SRB assay; type: functional, cell-based; conditions: THP-1, 72 h
DU-145 = assay: Antiproliferative activity against human DU-145 cells assessed as cell growth inhibition measured after 72 hrs by SRB assay; type: functional, cell-based; conditions: DU-145, 72 h
[9] = biological target: T1, NEDD8 activating enzyme (Homo sapiens); assay: Inhibition of NAE in human HCT-116 cells mediated neddylation assessed as accumulation of IkappaBalpha (Ser32/36) incubated for 24 hrs by Western blotting analysis; type: cell-based; conditions: dose <= 1.0 µM, DDE = dose-dependent effect
HCT-116 [10] = assay: Antiproliferative activity against human HCT-116 cells assessed as cell growth inhibition measured after 72 hrs by SRB assay; type: functional, cell-based; conditions: HCT-116, 72 h
[11] = AUClast in Sprague-Dawley rat at 1 mg/kg, iv; type: ADME, organism-based; set-up: time 0 - last, dose 1 mg/kg, route iv; conditions: in vivo
HCT-116 [12] = assay: Antitumor activity against human HCT-116 cells xenografted in nude mouse assessed as reduction in tumor growth at 130 mg/kg, sc qd for upto 18 days; type: functional; conditions: time <= 18 day
[13] = Observed MRTinfinity in Sprague-Dawley rat at 1 mg/kg, iv; type: ADME, organism-based; conditions: in vivo
[14] = biological target: T1, NEDD8 activating enzyme (Homo sapiens); assay: Inhibition of NAE in human HuTu80 cells mediated neddylation assessed as increase in CHK phosphorylation incubated for 24 hrs by Western blotting analysis; type: cell-based
HCT-116 [15] = assay: Antiproliferative activity against human HCT-116 cells assessed as cell growth inhibition by sulforhodamine B assay; type: functional, cell-based
NEDD8 activating enzyme = biological target: T2, NEDD8 activating enzyme (Homo sapiens, UniProt Q8TBC4); assay: Inhibition of NAE (unknown origin) mediated neddylation assessed as decrease in NEDD8-Ubcl2 adduct formation incubated for 2 hrs in presence of L-glutathione and ATP by HTRF assay; type: protein-complex assay
T2 sequence (Q8TBC4 whole entry): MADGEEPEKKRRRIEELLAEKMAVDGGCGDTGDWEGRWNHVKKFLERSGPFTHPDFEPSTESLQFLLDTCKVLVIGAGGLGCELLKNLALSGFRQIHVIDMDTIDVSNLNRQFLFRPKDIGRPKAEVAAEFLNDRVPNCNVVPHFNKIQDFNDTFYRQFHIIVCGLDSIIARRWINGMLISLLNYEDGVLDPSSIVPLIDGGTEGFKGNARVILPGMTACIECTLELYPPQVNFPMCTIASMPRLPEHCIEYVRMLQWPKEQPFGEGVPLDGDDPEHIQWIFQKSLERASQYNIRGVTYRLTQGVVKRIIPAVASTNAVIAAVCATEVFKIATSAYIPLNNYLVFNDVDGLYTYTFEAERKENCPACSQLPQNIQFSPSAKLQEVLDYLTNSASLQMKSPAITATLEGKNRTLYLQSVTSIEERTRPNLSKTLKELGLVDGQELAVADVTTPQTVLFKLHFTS
T2 sequence (Q13564 whole entry): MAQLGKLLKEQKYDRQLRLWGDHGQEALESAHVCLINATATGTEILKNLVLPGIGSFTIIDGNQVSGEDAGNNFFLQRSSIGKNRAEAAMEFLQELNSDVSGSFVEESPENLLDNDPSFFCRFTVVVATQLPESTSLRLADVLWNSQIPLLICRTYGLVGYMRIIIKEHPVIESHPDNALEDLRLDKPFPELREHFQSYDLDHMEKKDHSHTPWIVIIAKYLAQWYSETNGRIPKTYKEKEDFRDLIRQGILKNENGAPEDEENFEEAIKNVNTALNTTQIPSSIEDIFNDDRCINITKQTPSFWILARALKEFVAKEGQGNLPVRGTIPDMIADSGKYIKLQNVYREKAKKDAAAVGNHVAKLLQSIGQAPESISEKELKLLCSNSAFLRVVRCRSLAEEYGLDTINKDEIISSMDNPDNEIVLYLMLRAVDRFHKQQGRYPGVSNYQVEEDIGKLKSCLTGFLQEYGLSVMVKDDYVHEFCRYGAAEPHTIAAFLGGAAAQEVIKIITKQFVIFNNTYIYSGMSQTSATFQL

HT-29 = assay: Antiproliferative activity against human HT-29 cells assessed as cell growth inhibition measured after 72 hrs by SRB assay; type: functional, cell-based; conditions: HT-29, 72 h
[16] = Inhibition of UAE (unknown origin) […] assessed as decrease in UbcH10-Ub adduct formation incubated for 2 hrs in presence of L-glutathione and ATP by HTRF assay; set-up: species or system Homo sapiens
HCT-116 [17] = assay: Induction of apoptosis in human HCT-116 cells assessed as increase in cleaved caspase-7 level upto 1 uM incubated for 48 hrs by Western blot analysis; type: functional, cell-based
HCT-116 [18] = assay: Induction of cell cycle arrest in human HCT-116 cells assessed as increase in > 4N cells at higher concentration incubated for 24 hrs by PI-staining-based flow cytometry; type: functional
[19] = Volume of distribution at steady state in Sprague-Dawley rat at 1 mg/kg, iv; type: ADME, organism-based; conditions: in vivo, read-out: Vdss
CAPAN-1 = assay: Antiproliferative activity against human CAPAN-1 cells assessed as cell growth inhibition measured after 72 hrs by SRB assay; type: functional, cell-based; conditions: CAPAN-1, 72 h
[20] = biological target: T1, NEDD8 activating enzyme (Homo sapiens); assay: Inhibition of NAE in human HCT-116 cells mediated neddylation assessed as accumulation of p21 incubated for 24 hrs by Western blotting analysis; type: cell-based; conditions: dose <= 1.0 µM, DDE = dose-dependent effect
[21] = biological target: T1, NEDD8 activating enzyme (Homo sapiens); assay: Inhibition of NAE in human HuTu80 cells mediated neddylation assessed as accumulation of p21 incubated for 24 hrs by Western blotting analysis; type: cell-based; conditions: dose <= 1.0 µM, DDE = dose-dependent effect
HCT-116 [22] = assay: Induction of apoptosis in human HCT-116 cells assessed as increase in cleaved caspase-3 level upto 1 uM incubated for 48 hrs by Western blot analysis; type: functional, cell-based
HuTu80 = assay: Antiproliferative activity against human HuTu80 cells assessed as cell growth inhibition measured after 72 hrs by SRB assay; type: functional, cell-based; conditions: HuTu80, 72 h
[23] = biological target: T1, NEDD8 activating enzyme (Homo sapiens); assay: Inhibition of NAE in human HuTu80 cells mediated neddylation assessed as accumulation of gamma-H2AX incubated for 24 hrs by Western blotting analysis; type: cell-based
[24] = biological target: Voltage-gated inwardly rectifying potassium channel KCNH2 (Homo sapiens, UniProt Q12809); assay: Inhibition of hERG channel; type: toxicity
HCT-116 [25] = assay: Induction of cell cycle arrest in human HCT-116 cells assessed as accumulation of cells at S phase at higher concentration incubated for 24 hrs by PI-staining-based flow cytometry; type: functional
Jurkat = assay: Antiproliferative activity against human Jurkat cells assessed as cell growth inhibition measured after 72 hrs by SRB assay; type: functional, cell-based
[26] = biological target: T1, NEDD8 activating enzyme (Homo sapiens); assay: Inhibition of NAE in human HCT-116 cells mediated neddylation assessed as increase in CHK phosphorylation incubated for 24 hrs by Western blotting analysis; type: cell-based
HCT-116 [27] = assay: Induction of cell cycle arrest in human HCT-116 cells assessed as accumulation of cells at G2/M phase incubated for 24 hrs by PI-staining-based flow cytometry; type: functional
[28] = biological target: T1, NEDD8 activating enzyme (Homo sapiens); assay: Inhibition of NAE in human HCT-116 cells mediated neddylation assessed as accumulation of p27 incubated for 24 hrs by Western blotting analysis; type: cell-based; conditions: dose <= 1.0 µM, DDE = dose-dependent effect
[29] = Clearance in Sprague-Dawley rat at 1 mg/kg, iv; type: ADME, organism-based; conditions: in vivo
[30] = biological target: T1, NEDD8 activating enzyme (Homo sapiens); assay: Inhibition of NAE in human HCT-116 cells mediated neddylation assessed as accumulation of gamma-H2AX incubated for 24 hrs by Western blotting analysis; type: cell-based

Chain of Voltage-gated inwardly rectifying potassium channel KCNH2 (Q12809 whole entry): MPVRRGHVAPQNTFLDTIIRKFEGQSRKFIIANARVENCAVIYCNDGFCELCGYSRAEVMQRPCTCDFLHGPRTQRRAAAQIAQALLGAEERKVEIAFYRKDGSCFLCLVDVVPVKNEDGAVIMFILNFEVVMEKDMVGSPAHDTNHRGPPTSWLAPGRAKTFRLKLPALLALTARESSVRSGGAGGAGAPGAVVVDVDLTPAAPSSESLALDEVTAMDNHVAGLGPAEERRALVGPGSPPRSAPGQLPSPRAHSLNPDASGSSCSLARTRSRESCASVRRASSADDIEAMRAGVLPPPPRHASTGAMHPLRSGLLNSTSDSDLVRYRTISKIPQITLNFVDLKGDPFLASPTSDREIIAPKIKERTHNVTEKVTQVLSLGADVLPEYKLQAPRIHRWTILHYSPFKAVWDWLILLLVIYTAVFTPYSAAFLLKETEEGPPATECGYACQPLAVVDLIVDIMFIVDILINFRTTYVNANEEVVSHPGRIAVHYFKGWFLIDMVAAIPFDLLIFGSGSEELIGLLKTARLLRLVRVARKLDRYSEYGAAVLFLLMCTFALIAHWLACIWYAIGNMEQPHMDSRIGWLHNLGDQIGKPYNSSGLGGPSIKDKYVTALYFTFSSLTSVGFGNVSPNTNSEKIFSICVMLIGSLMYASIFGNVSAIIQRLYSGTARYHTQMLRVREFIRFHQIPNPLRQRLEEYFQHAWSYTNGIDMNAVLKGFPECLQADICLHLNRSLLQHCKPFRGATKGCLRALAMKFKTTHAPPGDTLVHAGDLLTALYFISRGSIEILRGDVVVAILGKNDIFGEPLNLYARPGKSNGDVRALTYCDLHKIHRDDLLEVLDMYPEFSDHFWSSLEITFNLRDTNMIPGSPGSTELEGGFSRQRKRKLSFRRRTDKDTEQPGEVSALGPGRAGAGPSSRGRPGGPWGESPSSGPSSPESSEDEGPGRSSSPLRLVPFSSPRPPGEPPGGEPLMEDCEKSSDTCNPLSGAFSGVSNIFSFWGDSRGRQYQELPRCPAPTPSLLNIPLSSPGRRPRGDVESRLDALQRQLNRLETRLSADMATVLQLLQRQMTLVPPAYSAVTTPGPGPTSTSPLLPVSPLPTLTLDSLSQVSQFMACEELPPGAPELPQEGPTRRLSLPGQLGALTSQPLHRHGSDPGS

COC(=O)N1CCC2(CC1)C[C@H](Nc1ncnc3c1nnn3[C@@H]1C[C@@H](COS(N)(=O)=O)[C@@H](O)C1)c1ccccc12
inhibition [1]: Dde
Activity [2]: Non-Toxic
IC50 (RKO): 286 nM
AUC(0-inf) [3]: 563 ng·h/mL
inhibition [4]: Dde
IC50 (LNCaP-Clone-FGC): 264 nM
IC50 (MV4-11): 106 nM
inhibition [5]: Dde
inhibition [6]: Dde
half-life [7]: 42.6 min
Activity (HCT-116 [8]): Active
IC50 (THP-1): 353 nM
IC50 (DU-145): 482 nM
inhibition [9]: Dde
IC50 (HCT-116 [10]): 33.9 nM
AUC(0-t) [11]: 560 ng·h/mL
T/C (HCT-116 [12]): 0.19
MRT inf [13]: 60 min
inhibition [14]: Active
IC50 (HCT-116 [15]): 36.2 nM
IC50 (NEDD8 activating enzyme): 0.55 nM
IC50 (HT-29): 407 nM
IC50 [16]: 66.8 nM
Activity (HCT-116 [17]): Active
Activity (HCT-116 [18]): Active
Vd [19]: 1.78 L/kg
IC50 (CAPAN-1): 101 nM
inhibition [20]: Dde
inhibition [21]: Dde
Activity (HCT-116 [22]): Active
IC50 (HuTu80): 40 nM
inhibition [23]: Active
IC50 [24]: > 40000 nM
Activity (HCT-116 [25]): Active
IC50 (Jurkat): 482 nM
inhibition [26]: Active
Activity (HCT-116 [27]): Active
inhibition [28]: Dde
clearance [29]: 29.7 mL/min/kg
inhibition [30]: Active
